Laboratory results: ChEMBL document CHEMBL5120769, “Sclerotiamides C-H, Notoamides from a Marine Gorgonian-Derived Fungus with Cytotoxic Activities” (J Nat Prod, 2022)
Activity calls are given as the source filed them. No cut-off for these calls is given here.

How the values were obtained:
HeLa [1] = test: Cytotoxicity against human HeLa cells assessed as reduction in cell viability by MTT assay; type: functional, cell-based
SMMC-7721 = test: Cytotoxicity against human SMMC-7721 cells assessed as reduction in cell viability by MTT assay; type: functional, cell-based
HepG2 = test: Cytotoxicity against human HepG2 cells assessed as reduction in cell viability by MTT assay; type: functional, cell-based
A549 = test: Cytotoxicity against human A549 cells assessed as reduction in cell viability by MTT assay; type: functional, cell-based
HeLa [2] = test: Activation of MAPK signalling pathway in human HeLa cells assessed as increase in ERK phosphorylation level at 1 to 10 uM after 24 hrs by western blot analysis; type: cell-based; conditions: filed as activator, dose 1-10 µM, DDE = dose-dependent effect
HeLa [3] = test: Inhibition of colony formation in human HeLa cells assessed as reduction in cell colonies at 4 uM after 10 days by crystal violet staining based assay relative to control; type: functional; conditions: time 10.0 day, DDE = dose-dependent effect
HeLa [4] = test: Induction of apoptosis in human HeLa cells assessed as increase in Bax protein expression at 1 to 10 uM after 24 hrs by Western blot analysis; type: functional, cell-based; conditions: dose 1-10 µM, DDE = dose-dependent effect
HeLa [5] = test: Induction of cell cycle arrest in human HeLa cells assessed as accumulation at G2 phase at 1 to 5 uM after 24 hrs by Propidium iodide staining based flow cytometric analysis (reference value: 23%); type: functional; conditions: dose 1-5 µM
HeLa [6] = test: Induction of apoptosis in human HeLa cells assessed as increase in caspase 3 protein expression at 1 to 10 uM after 24 hrs by Western blot analysis; type: functional, cell-based; conditions: dose 1-10 µM, DDE = dose-dependent effect
HeLa [7] = test: Induction of apoptosis in human HeLa cells assessed as increase in cleaved PARP protein expression at 1 to 10 uM after 24 hrs by Western blot analysis; type: functional, cell-based; conditions: dose 1-10 µM, DDE = dose-dependent effect
HeLa [8] = test: Induction of apoptosis in human HeLa cells assessed as increase in late apoptotic cells at 1 to 10 uM after 24 hrs by Annexin V staining based flow cytometric analysis; type: functional, cell-based; conditions: dose 1-10 µM
HeLa [9] = test: Induction of apoptosis in human HeLa cells assessed as increase in early apoptotic cells at 1 to 10 uM after 24 hrs by Annexin V staining based flow cytometric analysis; type: functional, cell-based; conditions: dose 1-10 µM
HeLa [10] = test: Induction of ROS generation in human HeLa cells at 1 to 10 uM after 24 hrs by DCFH-DA staining based fluorescence microscopic assay; type: functional, cell-based; conditions: dose 1-10 µM
HeLa [11] = test: Induction of apoptosis in human HeLa cells assessed as decrease in Bcl-2 protein expression at 1 to 10 uM after 24 hrs by Western blot analysis; type: functional, cell-based; conditions: dose 1-10 µM, DDE = dose-dependent effect
HeLa [12] = test: Induction of mitochondrial membrane potential loss in human HeLa cells at 1 to 10 uM after 24 hrs by JC1 staining based flow cytometric analysis; type: functional, cell-based; conditions: dose 1-10 µM
HeLa [13] = test: Induction of apoptosis in human HeLa cells assessed as increase in cytochrome C protein expression at 1 to 10 uM after 24 hrs by Western blot analysis; type: functional, cell-based; conditions: dose 1-10 µM, DDE = dose-dependent effect
HeLa [14] = test: Activation of MAPK signalling pathway in human HeLa cells assessed as increase in JNK phosphorylation level at 1 to 10 uM after 24 hrs by western blot analysis; type: cell-based; conditions: filed as activator, dose 1-10 µM, DDE = dose-dependent effect
HeLa [15] = test: Activation of MAPK signalling pathway in human HeLa cells assessed as increase in p38 phosphorylation level at 1 to 10 uM after 24 hrs by western blot analysis; type: cell-based; conditions: filed as activator, dose 1-10 µM, DDE = dose-dependent effect
HeLa [16] = test: Induction of apoptosis in human HeLa cells assessed as increase in p53 protein expression at 1 to 10 uM after 24 hrs by Western blot analysis; type: functional, cell-based; conditions: dose 1-10 µM, DDE = dose-dependent effect
HeLa [17] = test: Induction of apoptosis in human HeLa cells assessed as nuclear condensation at 1 to 10 uM after 24 hrs by Hoechst 33342 staining based fluorescence microscopic assay; type: functional, cell-based; conditions: dose 1-10 µM

Question: For `CC1(C)C=Cc2c(ccc3c4c([nH]c23)C(C)(C)[C@@H]2C[C@]35CCCN3C(=O)[C@]23[C@H]4NC(C)(C)N3C5=O)O1`, which IC50 (HeLa [1]) is on record?
Answer: The IC50 was over 10 µM.

Question: What about the IC50 (SMMC-7721) of the same compound?
Answer: Its IC50 is over 10 µM.

Question: And the IC50 (HepG2)?
Answer: The IC50 was over 10 µM.

Question: What about the IC50 (A549) of the same compound?
Answer: The IC50 was over 10 µM.

Question: What does the source list for `Cc1c(O)c(C)c2oc(=O)c(C3=C4C(=[N+]([O-])c5c4ccc4c5C=CC(C)(C)O4)C(C)(C)[C@@H]4C[C@]56CCCN5C(=O)[C@]34NC6=O)c(O)c2c1C`?
Answer: IC50 (HeLa [1]): > 10 µM; IC50 (SMMC-7721): > 10 µM; IC50 (HepG2): > 10 µM; IC50 (A549): > 10 µM

Question: With `CC1(C)C=Cc2c(ccc3c2[N+]([O-])=C2C(C)(C)C4C[C@]56CCCN5C(=O)C4(NC6=O)[C@@H](O)[C@@]23O)O1` (some centres undefined) as the compound, how does the IC50 (HeLa [1]) read?
Answer: Its IC50 is over 10 µM.

Question: And the IC50 (SMMC-7721)?
Answer: Its IC50 is over 10 µM.

Question: What about the IC50 (HepG2) of the same compound?
Answer: The IC50 was over 10 µM.

Question: What about the IC50 (A549) of the same compound?
Answer: The IC50 was over 10 µM.

Question: For `Cc1c(O)c(C)c2oc(=O)c3c(c2c1C)O[C@@]12C(=[N+]([O-])c4c1ccc1c4C=CC(C)(C)O1)C(C)(C)[C@@H]1C[C@]45CCCN4C(=O)[C@]1(NC5=O)[C@H]32`, which IC50 (HeLa [1]) is on record?
Answer: The IC50 was 7.9 µM.

Question: And the IC50 (SMMC-7721)?
Answer: Its IC50 is 6.7 µM.

Question: And the IC50 (HepG2)?
Answer: The IC50 was 8.1 µM.

Question: What about the IC50 (A549) of the same compound?
Answer: The IC50 was 7.8 µM.

Question: Which results are given for `CC1(C)C=Cc2c(ccc3c4c(n(O)c23)C(C)(C)[C@@H]2C[C@]35CCCN3C(=O)[C@]23[C@H]4NC(C)(C)N3C5=O)O1`?
Answer: IC50 (HeLa [1]): 1.7 µM; Activity (HeLa [2]): Dde; inhibition (HeLa [3]): Dde; Activity (HeLa [4]): Dde; Activity (HeLa [5]): 38%; Activity (HeLa [6]): Dde; Activity (HeLa [7]): Dde; Activity (HeLa [8]): Active; IC50 (SMMC-7721): 1.5 µM; IC50 (HepG2): 1.8 µM; Activity (HeLa [9]): Active; Activity (HeLa [10]): Active; Activity (HeLa [11]): Dde; Activity (HeLa [12]): Active; Activity (HeLa [13]): Dde; Activity (HeLa [14]): Dde; Activity (HeLa [15]): Dde; IC50 (A549): 1.6 µM; Activity (HeLa [16]): Dde; Activity (HeLa [17]): Active

Question: How did the IC50 (HeLa [1]) turn out when `CC(=O)O[C@H]1C(=O)[C@@]2(C)[C@H]([C@H](OC(=O)c3ccccc3)[C@]3(O)C[C@H](OC(=O)[C@H](O)[C@@H](NC(=O)c4ccccc4)c4ccccc4)C(C)=C1C3(C)C)[C@]1(OC(C)=O)CO[C@@H]1C[C@@H]2O` [PACLITAXEL] was run?
Answer: Its IC50 is 0.05 µM.

Question: And the IC50 (SMMC-7721)?
Answer: The IC50 was 0.07 µM.

Question: What about the IC50 (HepG2) of the same compound?
Answer: Its IC50 is 0.06 µM.

Question: What about the IC50 (A549) of the same compound?
Answer: The IC50 was 0.05 µM.

Question: With `CC1(C)C=Cc2c(ccc3c2N2O[C@@H]4O[C@@]2(C3=O)C(C)(C)C2C[C@]35CCCN3C(=O)C24NC5=O)O1` (some centres undefined) as the compound, how does the IC50 (HeLa [1]) read?
Answer: Its IC50 is over 10 µM.

Question: What about the IC50 (SMMC-7721) of the same compound?
Answer: The IC50 was over 10 µM.

Question: What about the IC50 (HepG2) of the same compound?
Answer: The IC50 was over 10 µM.

Question: What about the IC50 (A549) of the same compound?
Answer: Its IC50 is over 10 µM.
